Results: patent US10338037B2, “Compounds and conjugates for identifying and separating post-translationally modified analytes” (UVic Industry Partnerships Inc., priority 2015, dated 2019)

Key:
Assay type in all cases: binding
H3K4me2 peptide = target: T1, H3K4me2 peptide (Homo sapiens, UniProt P68431); experiment: fluorescence indicator displacement assay, solution-phase affinity for H3K4me2 peptide; conditions: for Kd: 10 mM phosphate buffer at pH 7.4, average of triplicate determinations, read-out: Solution-phase equilibrium dissociation constant (Kd), H3K4me2; for affinity for Kme2-containing peptides (in words): solution phase
T1 construct: H3 1-7=H2N-ARTKQTAY-COOH; made in house; host or cells: chemical solid-phase peptide synthesis
Experimental: (§1) In this example, the activity of various compound embodiments described herein were evaluated. A calixarene parent compound and compounds 502 and 404 were evaluated. Compound 502 was used has an upper-rim aryl group attached via sulfonamide linkage, and also includes a distal carboxy group for conjugation to solid-phase supports. The solution-phase affinities of a calixarene parent compound, and compounds 502 and 404 were determined for various methyllysine and methylarginine containing peptides by fluorescence indicator displacement assay (Table 1).
(§2) All values were determined in 10 mM phosphate buffer at pH 7.4 and are averages of triplicate determinations by an indicator displacement assay.

H3R2me2a peptide = target: T2, H3R2me2a peptide (Homo sapiens, UniProt P68431); experiment: fluorescence indicator displacement assay, solution-phase affinity for H3R2me2a peptide; conditions: for Kd: 10 mM phosphate buffer at pH 7.4, average of triplicate determinations, read-out: Solution-phase equilibrium dissociation constant (Kd), H3R2me2a
T2 construct: H3 1-7=H2N-ARTKQTAY-COOH; made in house; host or cells: chemical solid-phase peptide synthesis
Experimental: as §1, §2

H3K4me3 peptide = target: T3, H3K4me3 peptide; experiment: fluorescence indicator displacement assay, solution-phase affinity for H3K4me3 peptide
T3 construct: other: solution phase, indicator displacement assay; fused on or other part: C-terminal Tyr added to read concentration by A280; trimethyl-lysine (a PTM)
Experimental: as §1, §2

H3K4me peptide = target: T4, H3K4me peptide (Homo sapiens, UniProt P68431); experiment: fluorescence indicator displacement assay, solution-phase affinity for H3K4me peptide; conditions: 10 mM phosphate buffer at pH 7.4, average of triplicate determinations, read-out: Solution-phase equilibrium dissociation constant (Kd), H3K4me
T4 construct: H3 1-7=H2N-ARTKQTAY-COOH; made in house; host or cells: chemical solid-phase peptide synthesis
Experimental: as §1, §2

H3K9me3 peptide = target: T5, H3K9me3 peptide (Homo sapiens, UniProt P68431); experiment: fluorescence indicator displacement assay, solution-phase affinity for H3K9me3 peptide; conditions: 10 mM phosphate buffer at pH 7.4, average of triplicate determinations, read-out: Solution-phase equilibrium dissociation constant (Kd), H3K9me3
T5 construct: H3 1-12=H2N-ARTKQTARKSTGY-COOH; made in house; host or cells: chemical solid-phase peptide synthesis
Experimental: as §1, §2

H3K4ac peptide = target: T6, H3K4ac peptide (Homo sapiens, UniProt P68431); experiment: fluorescence indicator displacement assay, solution-phase affinity for H3K4ac peptide; conditions: for Kd: 10 mM phosphate buffer at pH 7.4, average of triplicate determinations, indicator displacement assay, read-out: Solution-phase equilibrium dissociation constant (Kd), H3K4ac; for binding to Kac containing peptides (in words): solution phase, relative to methylated peptides
T6 construct: H3 1-7=H2N-ARTKQTAY-COOH; made in house; host or cells: chemical solid-phase peptide synthesis
Experimental: as §1, §2

H3R2me2s peptide = target: T7, H3R2me2s peptide (Homo sapiens, UniProt P68431); experiment: fluorescence indicator displacement assay, solution-phase affinity for H3R2me2s peptide; conditions: 10 mM phosphate buffer at pH 7.4, average of triplicate determinations, read-out: Solution-phase equilibrium dissociation constant (Kd), H3R2me2s
T7 construct: H3 1-7=H2N-ARTKQTAY-COOH; made in house; host or cells: chemical solid-phase peptide synthesis
Experimental: as §1, §2

[1] = target: T8, H3K4 peptide (unmethylated) (Homo sapiens, UniProt P68431); experiment: fluorescence indicator displacement assay, solution-phase affinity for H3K4 peptide; conditions: for Kd: 10 mM phosphate buffer at pH 7.4, average of triplicate determinations, indicator displacement assay, read-out: Solution-phase equilibrium dissociation constant (Kd), H3K4; for binding to unmethylated controls (in words): solution phase, relative to methylated peptides
T8 construct: H3 1-7=H2N-ARTKQTAY-COOH; made in house; host or cells: chemical solid-phase peptide synthesis
Experimental: as §1, §2

Kd (H3K4me2 peptide)	affinity for Kme2-containing peptides (in words) (H3K4me2 peptide)	Kd (H3R2me2a peptide)	affinity for aDMA-containing peptides (in words) (H3R2me2a peptide; solution phase)	affinity for Kme3-containing peptides (in words) (H3K4me3 peptide)	Kd (H3K4me peptide)	Kd (H3K9me3 peptide)	Kd (H3K4ac peptide)	binding to Kac containing peptides (in words) (H3K4ac peptide)	Kd (H3R2me2s peptide)	Kd [1]	binding to unmethylated controls (in words) [1]	SMILES
0.4 µM	sub-micromolar	0.6 µM	sub-micromolar	sub-micromolar	1.3 µM	0.5 µM	7.6 µM	weaker binding	2.6 µM	3.8 µM	weaker binding	O=C(O)c1ccc(S(=O)(=O)Nc2cc3c(O)c(c2)Cc2cc(S(=O)(=O)O)cc(c2O)Cc2cc(S(=O)(=O)O)cc(c2O)Cc2cc(S(=O)(=O)O)cc(c2O)C3)cc1 [Compound 502, 5-(4-carboxyphenyl)sulfonamido-25, 26, 27, 28-tetrahydroxy-11-17-23-trisulfonatocalix[4]arene]
0.1 µM	sub-micromolar	1 µM		sub-micromolar	2.3 µM	1 µM	> 1000 µM	weaker binding	6.62 µM	85.5 µM	weaker binding	O=C(O)Cc1ccc(-c2cc3c(O)c(c2)Cc2cc(S(=O)(=O)O)cc(c2O)Cc2cc(S(=O)(=O)O)cc(c2O)Cc2cc(S(=O)(=O)O)cc(c2O)C3)cc1 [Compound 404, 5-(4-carboxymethylphenyl)-25, 26, 27, 28-tetrahydroxy-11-17-23-trisulfonatocalix[4]arene]
